Measurements from patent US20230365546A1, “5-SUBSTITUTED INDOLE 3-AMIDE DERIVATIVES, PREPARATION METHOD AND USE THEREOF” (ORIGIANT PHARMACEUTICAL CO., LTD, priority 2020, published 2023).

How the values were obtained:
Assay in all cases: Kinase Profiler 10 μM panel
AAK1(h) = AAK1(h) (Homo sapiens (Human), UniProt Q2M2I8)
Protocol: (§1) In vitro kinase assays were conducted using Kinase Profiler services provided by Eurofins. The experimental method was as follows: the small molecule compound to be tested (0.001-10 μM), the protein kinase to be tested were incubated with a buffer containing substrate, 10 mM magnesium acetate, and [γ-^33P-ATP], the reaction was started by adding Mg\TPmix, after incubation for a period of time at room temperature, a 3% phosphate solution was added to the buffer to stop the reaction. Subsequently, 10 μL of the reaction mixture was quantitatively pipetted onto P30 filter paper, which was washed three times with 75 mM phosphate solution and then once with methanol. The P30 filter paper was air-dried and scintillation fluid was added for scintillation counting.

Flt1(h) = Flt1(h) (Homo sapiens (Human), UniProt P17948)
Protocol: as §1

Fms(h) = Fms(h) (Homo sapiens (Human), UniProt P07333)
Protocol: as §1

ACK1(h) = ACK1(h) (Homo sapiens (Human), UniProt Q07912)
Protocol: as §1

[1] = target: PI3 Kinase (p110b/p85b)(m) (Mus musculus (Mouse), UniProt Q8BTI9)
Protocol: as §1

GRK2(h) = GRK2(h) (Homo sapiens (Human), UniProt P25098)
Protocol: as §1

GRK3(h) = GRK3(h) (Homo sapiens (Human), UniProt P35626)
Protocol: as §1

HIPK3(h) = HIPK3(h) (Homo sapiens (Human), UniProt Q9H422)
Protocol: as §1

HRI(h) = HRI(h) (Homo sapiens (Human), UniProt Q9BQI3)
Protocol: as §1

PKCϵ(h) = PKCϵ(h) (Homo sapiens (Human), UniProt Q02156)
Protocol: as §1

BrSK2(h) = BrSK2(h) (Homo sapiens (Human), UniProt Q8IWQ3)
Protocol: as §1

PKG1β(h) = PKG1β(h) (Homo sapiens (Human), UniProt Q13976)
Protocol: as §1

CaMKIIδ(h) = CaMKIIδ(h) (Homo sapiens (Human), UniProt Q13557)
Sequence of CaMKIIδ(h) (Q13557 whole entry): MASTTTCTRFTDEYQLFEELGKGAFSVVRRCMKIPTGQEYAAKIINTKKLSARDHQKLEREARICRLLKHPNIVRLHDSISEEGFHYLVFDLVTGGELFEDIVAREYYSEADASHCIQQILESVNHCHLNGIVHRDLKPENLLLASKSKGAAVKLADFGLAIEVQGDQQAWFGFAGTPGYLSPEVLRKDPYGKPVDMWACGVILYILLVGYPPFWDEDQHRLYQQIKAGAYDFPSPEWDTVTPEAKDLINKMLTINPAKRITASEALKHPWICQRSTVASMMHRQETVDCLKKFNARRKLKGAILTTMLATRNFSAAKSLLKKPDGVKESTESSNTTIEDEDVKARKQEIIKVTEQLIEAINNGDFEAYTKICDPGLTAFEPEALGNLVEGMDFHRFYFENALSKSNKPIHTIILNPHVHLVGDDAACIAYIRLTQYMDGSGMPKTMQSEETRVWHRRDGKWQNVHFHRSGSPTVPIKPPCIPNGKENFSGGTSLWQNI
Protocol: as §1

JNK2α2(h) = JNK2α2(h) (Homo sapiens (Human), UniProt P45984)
Protocol: as §1

Lck(h) = Lck(h) (Homo sapiens (Human), UniProt P06239)
Protocol: as §1

CDK16/cyclinY(h) = CDK16/cyclinY(h) (Homo sapiens (Human), UniProt Q00536)
Protocol: as §1

ROCK-II(r) = ROCK-II(r) (Rattus norvegicus (Rat), UniProt Q62868)
Sequence of ROCK-II(r) (Q62868 whole entry): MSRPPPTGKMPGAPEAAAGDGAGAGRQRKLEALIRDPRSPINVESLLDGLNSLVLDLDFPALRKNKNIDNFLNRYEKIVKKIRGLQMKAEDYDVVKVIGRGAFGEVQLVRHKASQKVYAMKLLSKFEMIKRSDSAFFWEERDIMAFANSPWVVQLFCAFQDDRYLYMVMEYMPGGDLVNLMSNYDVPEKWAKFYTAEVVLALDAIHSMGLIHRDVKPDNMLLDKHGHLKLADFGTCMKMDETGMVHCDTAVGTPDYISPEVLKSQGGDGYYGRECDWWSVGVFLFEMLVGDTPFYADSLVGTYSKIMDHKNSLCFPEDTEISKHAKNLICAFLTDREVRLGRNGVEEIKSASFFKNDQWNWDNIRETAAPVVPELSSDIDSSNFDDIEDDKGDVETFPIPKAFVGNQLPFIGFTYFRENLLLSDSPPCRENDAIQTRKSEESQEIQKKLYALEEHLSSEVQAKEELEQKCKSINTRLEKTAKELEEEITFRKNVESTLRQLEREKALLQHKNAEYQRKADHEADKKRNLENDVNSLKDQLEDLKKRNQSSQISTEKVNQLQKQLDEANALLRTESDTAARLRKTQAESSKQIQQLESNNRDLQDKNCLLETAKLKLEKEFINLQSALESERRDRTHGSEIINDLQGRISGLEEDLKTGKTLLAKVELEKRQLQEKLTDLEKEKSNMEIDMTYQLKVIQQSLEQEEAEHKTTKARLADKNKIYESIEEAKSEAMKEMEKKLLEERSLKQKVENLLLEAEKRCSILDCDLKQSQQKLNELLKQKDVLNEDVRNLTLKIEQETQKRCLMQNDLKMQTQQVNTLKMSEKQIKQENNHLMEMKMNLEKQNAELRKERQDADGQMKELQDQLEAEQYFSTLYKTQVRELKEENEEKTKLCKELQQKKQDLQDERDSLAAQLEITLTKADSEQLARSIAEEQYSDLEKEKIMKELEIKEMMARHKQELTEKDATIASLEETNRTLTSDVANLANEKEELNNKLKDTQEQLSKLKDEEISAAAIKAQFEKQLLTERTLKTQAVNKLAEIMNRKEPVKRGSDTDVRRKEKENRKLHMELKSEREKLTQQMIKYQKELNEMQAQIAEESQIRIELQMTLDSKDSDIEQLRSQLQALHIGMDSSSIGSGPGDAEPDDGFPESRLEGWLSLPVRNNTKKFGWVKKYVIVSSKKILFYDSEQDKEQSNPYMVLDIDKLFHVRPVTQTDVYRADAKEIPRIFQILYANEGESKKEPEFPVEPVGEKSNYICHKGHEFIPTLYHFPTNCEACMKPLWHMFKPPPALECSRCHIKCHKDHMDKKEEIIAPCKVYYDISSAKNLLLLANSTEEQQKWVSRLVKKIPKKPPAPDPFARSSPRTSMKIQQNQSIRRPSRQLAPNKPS
Protocol: as §1

CDK6/cyclinD3(h) = CDK6/cyclinD3(h) (Homo sapiens (Human), UniProt Q00534)
Protocol: as §1

MARK1(h) = MARK1(h) (Homo sapiens (Human), UniProt Q9P0L2)
Sequence of MARK1(h) (Q9P0L2 whole entry): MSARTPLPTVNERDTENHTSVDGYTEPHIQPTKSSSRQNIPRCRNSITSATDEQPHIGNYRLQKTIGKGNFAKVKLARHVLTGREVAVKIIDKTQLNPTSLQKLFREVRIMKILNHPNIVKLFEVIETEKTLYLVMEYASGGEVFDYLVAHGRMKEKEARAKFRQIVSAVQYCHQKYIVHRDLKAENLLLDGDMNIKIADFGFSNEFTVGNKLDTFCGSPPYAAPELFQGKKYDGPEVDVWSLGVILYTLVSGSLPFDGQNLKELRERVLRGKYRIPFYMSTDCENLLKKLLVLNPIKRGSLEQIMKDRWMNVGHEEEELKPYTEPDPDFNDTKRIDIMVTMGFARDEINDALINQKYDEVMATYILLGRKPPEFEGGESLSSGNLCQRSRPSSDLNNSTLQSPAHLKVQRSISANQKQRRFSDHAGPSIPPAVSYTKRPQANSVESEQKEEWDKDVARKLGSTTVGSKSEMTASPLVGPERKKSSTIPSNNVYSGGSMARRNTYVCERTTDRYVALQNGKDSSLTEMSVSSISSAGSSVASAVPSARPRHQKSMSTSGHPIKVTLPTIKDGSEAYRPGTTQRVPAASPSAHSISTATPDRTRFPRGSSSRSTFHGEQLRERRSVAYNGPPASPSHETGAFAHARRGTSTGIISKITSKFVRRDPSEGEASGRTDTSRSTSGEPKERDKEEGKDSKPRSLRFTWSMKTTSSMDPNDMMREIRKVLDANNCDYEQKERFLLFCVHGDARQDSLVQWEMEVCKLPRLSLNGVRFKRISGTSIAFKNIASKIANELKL
Protocol: as §1

CHK2(I157T)(h) = CHK2(I157T)(h) (Homo sapiens (Human), UniProt O96017, I157T)
Protocol: as §1

CK1γ2(h) = CK1γ2(h) (Homo sapiens (Human), UniProt P78368)
Protocol: as §1

CK1γ3(h) = CK1γ3(h) (Homo sapiens (Human), UniProt Q9Y6M4)
Protocol: as §1

CK2α1(h) = CK2α1(h) (Homo sapiens (Human), UniProt P68400)
Protocol: as §1

CK2α2(h) = CK2α2(h) (Homo sapiens (Human), UniProt P19784)
Protocol: as §1

MKK6(h) = MKK6(h) (Homo sapiens (Human), UniProt P52564)
Protocol: as §1

CLIK1(h) = CLIK1(h) (Homo sapiens (Human), UniProt Q8TDR2)
Protocol: The experimental method was as follows: the small molecule compound to be tested (0.001-10 μM), the protein kinase to be tested were incubated with a buffer containing substrate, 10 mM magnesium acetate, and [γ-^33P-ATP], the reaction was started by adding Mg\TPmix, after incubation for a period of time at room temperature, a 3% phosphate solution was added to the buffer to stop the reaction. Subsequently, 10 μL of the reaction mixture was quantitatively pipetted onto P30 filter paper, which was washed three times with 75 mM phosphate solution and then once with methanol. The P30 filter paper was air-dried and scintillation fluid was added for scintillation counting.

DCAMKL3(h) = DCAMKL3(h) (Homo sapiens (Human), UniProt Q9C098)
TLK2(h) = TLK2(h) (Homo sapiens (Human), UniProt Q86UE8)
Protocol: as §1

DYRK3(h) = DYRK3(h) (Homo sapiens (Human), UniProt O43781)
Protocol: as §1

NEK7(h) = NEK7(h) (Homo sapiens (Human), UniProt Q8TDX7)
Protocol: as §1

TSSK3(h) = TSSK3(h) (Homo sapiens (Human), UniProt Q96PN8)
Protocol: as §1

PAK4(h) = PAK4(h) (Homo sapiens (Human), UniProt O96013)
Protocol: as §1

PAK6(h) = PAK6(h) (Homo sapiens (Human), UniProt Q9NQU5)
Protocol: as §1

[2] = target: PI3 Kinase (p110a(E542K)/p85a)(h) (Homo sapiens (Human), UniProt P42336, E542K)
Protocol: as §1

Sequence of Flt1(h) (P17948 27-1338): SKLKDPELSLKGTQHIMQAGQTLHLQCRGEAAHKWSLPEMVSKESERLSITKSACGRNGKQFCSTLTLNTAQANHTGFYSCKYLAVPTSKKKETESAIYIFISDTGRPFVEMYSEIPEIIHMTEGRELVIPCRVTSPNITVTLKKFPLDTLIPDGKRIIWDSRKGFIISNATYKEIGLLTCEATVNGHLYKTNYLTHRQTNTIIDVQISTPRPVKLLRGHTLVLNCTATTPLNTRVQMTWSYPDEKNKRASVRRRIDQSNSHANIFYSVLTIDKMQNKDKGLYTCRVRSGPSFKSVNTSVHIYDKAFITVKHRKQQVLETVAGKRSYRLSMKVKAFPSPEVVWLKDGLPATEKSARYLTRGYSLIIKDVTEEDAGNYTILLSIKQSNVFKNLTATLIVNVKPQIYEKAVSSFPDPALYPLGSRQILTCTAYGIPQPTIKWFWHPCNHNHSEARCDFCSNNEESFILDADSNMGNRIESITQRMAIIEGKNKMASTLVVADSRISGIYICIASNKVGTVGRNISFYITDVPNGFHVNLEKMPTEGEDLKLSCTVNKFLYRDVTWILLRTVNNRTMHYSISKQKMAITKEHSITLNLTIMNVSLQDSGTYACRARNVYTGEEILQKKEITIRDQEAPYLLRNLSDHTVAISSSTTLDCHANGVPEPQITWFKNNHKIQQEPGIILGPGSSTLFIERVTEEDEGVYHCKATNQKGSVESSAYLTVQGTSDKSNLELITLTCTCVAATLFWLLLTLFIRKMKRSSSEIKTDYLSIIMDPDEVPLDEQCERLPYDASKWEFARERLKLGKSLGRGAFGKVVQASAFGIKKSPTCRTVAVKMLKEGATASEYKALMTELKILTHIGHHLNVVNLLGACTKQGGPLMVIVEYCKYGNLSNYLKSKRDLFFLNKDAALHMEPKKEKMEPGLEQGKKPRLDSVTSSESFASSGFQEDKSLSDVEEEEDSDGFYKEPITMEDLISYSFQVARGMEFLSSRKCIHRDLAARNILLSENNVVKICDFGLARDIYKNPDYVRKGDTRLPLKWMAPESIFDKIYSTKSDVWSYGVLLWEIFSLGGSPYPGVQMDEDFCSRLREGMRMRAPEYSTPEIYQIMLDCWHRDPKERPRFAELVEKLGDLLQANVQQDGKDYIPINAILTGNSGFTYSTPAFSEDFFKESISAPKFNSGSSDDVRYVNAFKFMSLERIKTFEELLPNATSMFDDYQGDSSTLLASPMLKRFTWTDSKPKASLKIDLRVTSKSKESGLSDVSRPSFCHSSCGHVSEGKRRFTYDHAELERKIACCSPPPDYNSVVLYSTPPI
Sequence of ACK1(h) (Q07912 whole entry): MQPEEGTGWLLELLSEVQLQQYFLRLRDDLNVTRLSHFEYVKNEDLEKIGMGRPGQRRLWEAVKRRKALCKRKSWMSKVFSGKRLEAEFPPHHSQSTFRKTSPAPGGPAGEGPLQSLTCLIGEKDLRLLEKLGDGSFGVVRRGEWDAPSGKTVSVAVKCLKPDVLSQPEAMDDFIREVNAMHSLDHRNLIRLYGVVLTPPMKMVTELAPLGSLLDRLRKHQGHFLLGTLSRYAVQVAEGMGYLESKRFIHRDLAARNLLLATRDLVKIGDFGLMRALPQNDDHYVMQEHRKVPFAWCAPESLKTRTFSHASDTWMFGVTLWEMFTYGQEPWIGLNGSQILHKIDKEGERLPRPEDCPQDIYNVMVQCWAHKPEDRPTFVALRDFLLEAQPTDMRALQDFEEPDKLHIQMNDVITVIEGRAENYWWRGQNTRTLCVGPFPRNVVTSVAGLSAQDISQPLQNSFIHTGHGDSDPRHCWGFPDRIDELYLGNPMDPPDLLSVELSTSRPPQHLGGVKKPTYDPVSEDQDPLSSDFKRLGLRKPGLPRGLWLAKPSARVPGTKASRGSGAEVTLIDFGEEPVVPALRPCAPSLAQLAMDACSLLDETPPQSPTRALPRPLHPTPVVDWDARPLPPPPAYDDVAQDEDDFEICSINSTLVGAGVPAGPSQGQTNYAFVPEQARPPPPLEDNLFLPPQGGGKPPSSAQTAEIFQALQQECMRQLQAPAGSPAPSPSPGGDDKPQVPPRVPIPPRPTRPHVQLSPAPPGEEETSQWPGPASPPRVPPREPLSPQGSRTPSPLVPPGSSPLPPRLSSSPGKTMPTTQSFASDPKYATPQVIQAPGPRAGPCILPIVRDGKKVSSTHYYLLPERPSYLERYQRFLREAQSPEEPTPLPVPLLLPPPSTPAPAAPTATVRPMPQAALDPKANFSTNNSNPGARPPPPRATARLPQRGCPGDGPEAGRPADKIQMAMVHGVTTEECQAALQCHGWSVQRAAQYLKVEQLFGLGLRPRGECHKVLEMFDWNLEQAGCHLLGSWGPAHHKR

## C[C@H](NC(=O)c1c[nH]c2ccc(-c3ccc4nc(NC(=O)C5CC5)sc4c3)cc12)c1cccc(F)c1 [Compound 34, (S)-5-(2-(cyclopropanecarboxamido)benzo[d]thiazol-6-yl)-N-(1-(3-fluorophenyl)ethyl)-1H-indole-3-carboxamide]
AAK1(h)
  Inhibition ratio: 24%
Flt1(h)
  Inhibition ratio: 100%
Fms(h)
  Inhibition ratio: 21%
ACK1(h)
  Inhibition ratio: 35%
[1]
  Inhibition ratio: 45%
GRK2(h)
  Inhibition ratio: −1%
GRK3(h)
  Inhibition ratio: −1%
HIPK3(h)
  Inhibition ratio: 79%
HRI(h)
  Inhibition ratio: −3%
PKCϵ(h)
  Inhibition ratio: −8%
BrSK2(h)
  Inhibition ratio: 8%
PKG1β(h)
  Inhibition ratio: 7%
CaMKIIδ(h)
  Inhibition ratio: 22%
JNK2α2(h)
  Inhibition ratio: 25%
Lck(h)
  Inhibition ratio: 65%
CDK16/cyclinY(h)
  Inhibition ratio: −30%
ROCK-II(r)
  Inhibition ratio: 12%
CDK6/cyclinD3(h)
  Inhibition ratio: 6%
MARK1(h)
  Inhibition ratio: 6%
CHK2(I157T)(h)
  Inhibition ratio: 24%
CK1γ2(h)
  Inhibition ratio: 9%
CK1γ3(h)
  Inhibition ratio: −15%
CK2α1(h)
  Inhibition ratio: 7%
CK2α2(h)
  Inhibition ratio: 23%
MKK6(h)
  Inhibition ratio: 7%
CLIK1(h)
  Inhibition ratio: 22%
DCAMKL3(h)
  Inhibition ratio: 8%
TLK2(h)
  Inhibition ratio: 5%
DYRK3(h)
  Inhibition ratio: 48%
NEK7(h)
  Inhibition ratio: 4%
TSSK3(h)
  Inhibition ratio: −6%
PAK4(h)
  Inhibition ratio: 10%
PAK6(h)
  Inhibition ratio: −14%
[2]
  Inhibition ratio: 38%

## C[C@H](NC(=O)c1cn(C)c2ccc(-c3ccn4nc(NC(=O)C5CC5)nc4c3)cc12)c1cccc(F)c1 [Compound 94, (S)-5-(2-(cyclopropanecarboxamido)-[1,2,4]triazolo[1,5-a]pyridin-7-yl)-N-(1-(3-fluorophenyl)ethyl)-1-methyl-1H-indole-3-carboxamide]
AAK1(h)
  Inhibition ratio/%: 2%
Flt1(h)
  Inhibition ratio/%: 42%
Fms(h)
  Inhibition ratio/%: 22%
ACK1(h)
  Inhibition ratio/%: 33%
[1]
  Inhibition ratio/%: 44%
GRK2(h)
  Inhibition ratio/%: 53%
GRK3(h)
  Inhibition ratio/%: −12%
HIPK3(h)
  Inhibition ratio/%: 62%
HRI(h)
  Inhibition ratio/%: −4%
PKCϵ(h)
  Inhibition ratio/%: 35%
BrSK2(h)
  Inhibition ratio/%: −2%
PKG1β(h)
  Inhibition ratio/%: 0%
CaMKIIδ(h)
  Inhibition ratio/%: −11%
JNK2α2(h)
  Inhibition ratio/%: 40%
Lck(h)
  Inhibition ratio/%: 44%
CDK16/cyclinY(h)
  Inhibition ratio/%: 51%
ROCK-II(r)
  Inhibition ratio/%: 52%
CDK6/cyclinD3(h)
  Inhibition ratio/%: 80%
MARK1(h)
  Inhibition ratio/%: −13%
CHK2(I157T)(h)
  Inhibition ratio/%: 61%
CK1γ2(h)
  Inhibition ratio/%: 50%
CK1γ3(h)
  Inhibition ratio/%: −10%
CK2α1(h)
  Inhibition ratio/%: 58%
CK2α2(h)
  Inhibition ratio/%: 25%
MKK6(h)
  Inhibition ratio/%: 30%
CLIK1(h)
  Inhibition ratio/%: 22%
DCAMKL3(h)
  Inhibition ratio/%: 33%
TLK2(h)
  Inhibition ratio/%: 25%
DYRK3(h)
  Inhibition ratio/%: 10%
NEK7(h)
  Inhibition ratio/%: 43%
TSSK3(h)
  Inhibition ratio/%: 0%
PAK4(h)
  Inhibition ratio/%: 5%
PAK6(h)
  Inhibition ratio/%: 49%
[2]
  Inhibition ratio/%: −4%
